In patent publication US20250127863A1, “ANTIMICROBIAL PEPTIDE FOR ONYCHOMYCOSIS” (CBMR SCIENTIFIC NANOSCIENCE B.V., priority 2019, published 2025):
No end group written: not given here.

Columns and labels:
Experiment in all cases: MIC90 growth inhibition
Sporotrichium spp = type: cell-based; details: RPMI 1640 one-fourth strength
Procedure: (§1) The minimum inhibitory concentration (MIC) value is defined as the lowest sample concentration that inhibited growth. In the Examples, the MIC90 value is presented, which MIC90 values are determined according to established methods known to the person with the skills in the relevant art. Experiments; 1×10E5 CFU of various strains/ml were incubated for 24-48 h at 37° C. in 4× diluted medium of RPMI 1640 with the indicated concentrations of antimicrobial peptide hLF(1-11) [SEQ ID NO: 3]. As controls various strains cells were incubated for 24-48 h at 37° C. with no agent (antimicrobial peptide), and subsequently, growth of the microbial organism (e.g. yeast, bacterium) was monitored by using spectrophotometry with a spectrophotometer at 620 nm. […] ND=Not done. Representative single assay data are listed rather than a range, for clarity reasons and for ease of comparison of peptide efficacy. The MIC was calculated as the lowest antibiotic (antimicrobial peptide) concentration at which growth of the assessed yeast or bacterium (microbe) was inhibited (inhibitory concentration IC90).

Exophiala dermatitidis = type: cell-based; details: RPMI 1640 one-fourth strength
Procedure: as §1

Trichophyton mucoides = type: cell-based; details: RPMI 1640 one-fourth strength
Procedure: as §1

Cryptococcus albidus = type: cell-based; details: RPMI 1640 one-fourth strength
Procedure: as §1

Zygosaccharomyces bailii = type: cell-based; details: RPMI 1640 one-fourth strength
Procedure: as §1

[1] = test system: Malassezia furfur CBS-7982; type: cell-based; details: RPMI 1640 one-fourth strength
Procedure: as §1

Cladosporium trichoides = type: cell-based; details: RPMI 1640 one-fourth strength
Procedure: as §1

Cryptococcus gattii = type: cell-based; details: RPMI 1640 one-fourth strength
Procedure: as §1

Microsporum gypseum = type: cell-based; details: RPMI 1640 one-fourth strength
Procedure: as §1

Trichophyton tonsurans = type: cell-based; details: RPMI 1640 one-fourth strength
Procedure: as §1

Streptococcus mutans = type: cell-based; details: RPMI 1640 one-fourth strength
Procedure: as §1

Meyerozyma spp. = type: cell-based; details: RPMI 1640 one-fourth strength
Procedure: as §1

Pichia membramfaciens = type: cell-based; details: RPMI 1640 one-fourth strength
Procedure: as §1

Sporothrix schenckii = type: cell-based; details: RPMI 1640 one-fourth strength
Procedure: as §1

[2] = test system: Saccharomyces cerivisiae ATCC 2602; type: cell-based; details: RPMI 1640 one-fourth strength
Procedure: as §1

[3] = test system: Staphylococcus aureus 29213; type: cell-based; details: RPMI 1640 one-fourth strength
Procedure: as §1

[4] = test system: Cryptococcus uniguttulatus; type: cell-based; details: RPMI 1640 one-fourth strength
Procedure: as §1

[5] = test system: Trichophyton mentagrophytes; type: cell-based; details: RPMI 1640 one-fourth strength
Procedure: as §1

Altematria spp. = type: cell-based; details: RPMI 1640 one-fourth strength
Procedure: as §1

[6] = test system: Zygosaccharomyces bisprous; type: cell-based; details: RPMI 1640 one-fourth strength
Procedure: as §1

[7] = test system: Saccharomyces cerevisiae spp; type: cell-based; details: RPMI 1640 one-fourth strength
Procedure: as §1

Aspergillus terreus = type: cell-based; details: RPMI 1640 one-fourth strength
Procedure: as §1

Nannizia gypsea = type: cell-based; details: RPMI 1640 one-fourth strength
Procedure: as §1

[8] = test system: Saccharomyces cerivisiae ATCC 2601; type: cell-based; details: RPMI 1640 one-fourth strength
Procedure: as §1

Geotrichium spp = type: cell-based; details: RPMI 1640 one-fourth strength
Procedure: as §1

Aspergillus niger = type: cell-based; details: RPMI 1640 one-fourth strength
Procedure: as §1

Streptococcus mitis = type: cell-based; details: RPMI 1640 one-fourth strength
Procedure: as §1

[9] = test system: Malassezia furfur CBS 7019; type: cell-based; details: RPMI 1640 one-fourth strength
Procedure: as §1

Nannizzia otae = type: cell-based; details: RPMI 1640 one-fourth strength
Procedure: as §1

[10] = test system: Penicillium spp. such as aff. Carbonarius; type: cell-based; details: RPMI 1640 one-fourth strength
Procedure: as §1

[11] = test system: Trichophyton interdigitale; type: cell-based; details: RPMI 1640 one-fourth strength
Procedure: as §1

[12] = test system: Malassezia pachydermatis CBS 1880; type: cell-based; details: RPMI 1640 one-fourth strength
Procedure: as §1

Epidermophyton floccosum = type: cell-based; details: RPMI 1640 one-fourth strength
Procedure: as §1

[13] = test system: Cryptococcus neoformans ▴ SKN7 (UMC); type: cell-based; details: genetically modified type species, RPMI 1640 one-fourth strength
Procedure: as §1

Microsporum canis = type: cell-based; details: RPMI 1640 one-fourth strength
Procedure: as §1

Malassezia furfur spp. = type: cell-based; details: RPMI 1640 one-fourth strength
Procedure: as §1

[14] = test system: Malassezia restricta CBS 7877; type: cell-based; details: RPMI 1640 one-fourth strength
Procedure: as §1

Proteus spp = type: cell-based; details: RPMI 1640 one-fourth strength
Procedure: as §1

[15] = test system: Malassezia pachydermatis CBS-1879; type: cell-based; details: RPMI 1640 one-fourth strength
Procedure: as §1

[16] = test system: Malassezia furfur CBS-9372; type: cell-based; details: RPMI 1640 one-fourth strength
Procedure: as §1

Streptococcus caseii = type: cell-based; details: RPMI 1640 one-fourth strength
Procedure: as §1

Aspergillus ungius = type: cell-based; details: RPMI 1640 one-fourth strength
Procedure: as §1

C. glabrata (LUMC) = type: cell-based, Candida glabrata; details: RPMI 1640 one-fourth strength
Procedure: as §1

C. glabrata CMC-1933 = type: cell-based, Candida glabrata; details: RPMI 1640 one-fourth strength
Procedure: as §1

In the case of “GRRRRSVQWCA [hLF1-11, Gly Arg Arg Arg Arg Ser Val Gln Trp Cys Ala]”, the “Inhibitory concentration MIC (MIC90)” value (Sporotrichium spp) is reported as “MIC = 40 μg/ml”, the “Inhibitory concentration MIC (MIC90)” value (Exophiala dermatitidis) is reported as “MIC = 2 μg/ml” and the “Inhibitory concentration MIC (MIC90)” value (Trichophyton mucoides) is reported as “MIC = 12.5-50 μg/ml”. The “Inhibitory concentration MIC (MIC90)” value (Cryptococcus albidus) was “MIC = 25 μg/ml”, the “Inhibitory concentration MIC (MIC90)” value (Zygosaccharomyces bailii) was “MIC = 8 μM” and the “Inhibitory concentration MIC (MIC90)” value [1] was “MIC = 100 μg/ml”. The “Inhibitory concentration MIC (MIC90)” value (Cladosporium trichoides) was “MIC = 5 μg/ml”, the “Inhibitory concentration MIC (MIC90)” value (Cryptococcus gattii) was “MIC = 64 μg/mL” and the “Inhibitory concentration MIC (MIC90)” value (Microsporum gypseum) was “MIC = 20-40 μg/ml”. For the same sequence, the “Inhibitory concentration MIC (MIC90)” value (Trichophyton tonsurans) was “MIC = 5-40 μg/ml”, the “Inhibitory concentration MIC (MIC90)” value (Streptococcus mutans) was “MIC = 3.1 μg/ml” and the “Inhibitory concentration MIC (MIC90)” value (Meyerozyma spp.) was “MIC = 25-50 μg/mL”. The “Inhibitory concentration MIC (MIC90)” value (Pichia membramfaciens) was “MIC = 45 μg/ml”, the “Inhibitory concentration MIC (MIC90)” value (Sporothrix schenckii) was “MIC = 2-10 μg/ml” and the “Inhibitory concentration MIC (MIC90)” value [2] was “MIC = 25 μg/ml”. The “Inhibitory concentration MIC (MIC90)” value [3] was “MIC = 3.1 μg/ml”, the “Inhibitory concentration MIC (MIC90)” value [4] was “MIC = 6 μg/ml” and the “Inhibitory concentration MIC (MIC90)” value [5] was “MIC = 6.3-45 μg/ml”. For the same sequence, the “Inhibitory concentration MIC (MIC90)” value (Altematria spp.) was “MIC = 16 μM”, the “Inhibitory concentration MIC (MIC90)” value [6] was “MIC = 40 μg/ml” and the “Inhibitory concentration MIC (MIC90)” value [7] was “MIC = 0.63-50 μg/ml”. The “Inhibitory concentration MIC (MIC90)” value (Aspergillus terreus) was “MIC = 2.5-12.5 μg/ml”, the “Inhibitory concentration MIC (MIC90)” value (Nannizia gypsea) was “MIC = 30 μg/ml” and the “Inhibitory concentration MIC (MIC90)” value [8] was “MIC = 25 μg/mL”. The “Inhibitory concentration MIC (MIC90)” value (Geotrichium spp) was “MIC = 50 μg/mL”, the “Inhibitory concentration MIC (MIC90)” value (Aspergillus niger) was “MIC = 50 μg/mL” and the “Inhibitory concentration MIC (MIC90)” value (Streptococcus mitis) was “MIC = 3.1 μg/ml”. The “Inhibitory concentration MIC (MIC90)” value [9] was “MIC = 12.5-50 μg/mL”, the “Inhibitory concentration MIC (MIC90)” value (Nannizzia otae) was “MIC = 60 μg/ml” and the “Inhibitory concentration MIC (MIC90)” value [10] was “MIC = 45 μg/ml”. For the same sequence, the “Inhibitory concentration MIC (MIC90)” value [11] was “MIC = 6.3-45 μg/ml”, the “Inhibitory concentration MIC (MIC90)” value [12] was “MIC = 25-50 μg/mL” and the “Inhibitory concentration MIC (MIC90)” value (Epidermophyton floccosum) was “MIC = 0.31-2.5 μg/ml”. For the same sequence, the “Inhibitory concentration MIC (MIC90)” value [13] was “MIC = 6.3 μg/ml”, the “Inhibitory concentration MIC (MIC90)” value (Microsporum canis) was “MIC = 40 μg/ml” and the “Inhibitory concentration MIC (MIC90)” value (Malassezia furfur spp.) was “MIC = 12.5-50 μg/mL”. For the same sequence, the “Inhibitory concentration MIC (MIC90)” value [14] was “MIC = 50 μg/mL”, the “Inhibitory concentration MIC (MIC90)” value (Proteus spp) was “MIC = 6.3 μg/ml” and the “Inhibitory concentration MIC (MIC90)” value [15] was “MIC = 50 μg/ml”. The “Inhibitory concentration MIC (MIC90)” value [16] was “MIC = 50 μg/ml”, the “Inhibitory concentration MIC (MIC90)” value (Streptococcus caseii) was “MIC = 3.1 μg/ml” and the “Inhibitory concentration MIC (MIC90)” value (Aspergillus ungius) was “MIC = 3.1-25 μg/ml”. The “Inhibitory concentration MIC (MIC90)” value (C. glabrata (LUMC)) was “MIC = 25 μg/mL” and the “Inhibitory concentration MIC (MIC90)” value (C. glabrata CMC-1933) was “MIC = 25 μg/mL”.
